pIC50: −log10 of the molar value.
What was measured:
[1] = tested on: platelet-rich plasma (PRP), collagen-induced platelet aggregation; assay: Collagen-stimulated platelet aggregation inhibition in human platelet-rich plasma; type: cell-based; details: 2 min, 2 min at 37° C. with compound
Experimental: Platelet Aggregation Suppressing Action
Human blood was collected using a 3.13% solution of sodium citrate as an anticoagulant, in a volume 1/10 of the blood volume, and was centrifuged at 180 g for 10 minutes to separate platelet-rich plasma (PRP) from the blood. The PRP in the upper layer was isolated, and then the lower layer was centrifuged at 1600 g for 10 minutes to isolate the platelet-poor plasma (PPP) in the upper layer. 1 μL of a solution of the compound of the Examples) was added to 200 μL of the PRP, and the mixture was allowed to stand for 2 minutes at 37° C. Then, 2 μL of collagen was added thereto, so as to induce platelet aggregation. The rate of platelet aggregation was measured using a PAM-12C (SSR Engineering). By taking the light transmittance of the PPP as the value indicating 100% aggregation, the rates of platelet aggregation at various concentrations of the compound of the Examples were determined, and the IC50 value was calculated.

[2] = target: T1, COX-1 (Ovis aries, UniProt P05979); assay: Cyclooxygenase-1 (COX-1) inhibitory effect (Cayman COX Inhibitor Screening Assay Kit, PGF2α ELISA); type: biochemical; details: in the presence of 50 μM of the compound; PGF2α production without compound regarded as 100%; read-out: COX inhibitory activity COX-1 (rate of COX-1 inhibition)
T1 construct: purchased Cayman Chemical Company 560101 and 560121
T1 sequence (P05979 25-600): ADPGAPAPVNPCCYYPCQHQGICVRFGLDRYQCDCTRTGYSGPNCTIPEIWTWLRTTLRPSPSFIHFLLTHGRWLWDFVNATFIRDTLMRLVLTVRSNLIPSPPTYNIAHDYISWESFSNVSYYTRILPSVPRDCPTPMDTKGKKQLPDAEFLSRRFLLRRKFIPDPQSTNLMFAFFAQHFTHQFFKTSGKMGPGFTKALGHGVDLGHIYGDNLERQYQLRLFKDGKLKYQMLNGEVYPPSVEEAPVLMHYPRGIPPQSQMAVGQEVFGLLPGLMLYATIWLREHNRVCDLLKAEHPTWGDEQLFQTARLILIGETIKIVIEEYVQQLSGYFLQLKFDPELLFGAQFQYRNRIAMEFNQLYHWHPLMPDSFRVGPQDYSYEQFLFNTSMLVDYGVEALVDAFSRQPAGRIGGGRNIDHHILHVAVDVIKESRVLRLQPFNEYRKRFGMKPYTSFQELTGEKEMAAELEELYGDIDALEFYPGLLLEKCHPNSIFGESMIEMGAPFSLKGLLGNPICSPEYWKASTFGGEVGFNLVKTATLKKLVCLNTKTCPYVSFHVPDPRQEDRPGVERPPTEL
Excerpt: Cyclooxygenase-1 (COX-1) Inhibitory Effect
For the measurement of the COX-1 inhibitory activity of the compound of the Examples, a COX Inhibitor Screening Assay Kit manufactured by Cayman Chemical Company (Catalog Nos. 560101 and 560121) was used.
Before starting the measurement, a reaction buffer, heme, arachidonic acid, SnCl2, EIA buffer, a washing buffer, prostaglandin (PG)-screening EIA standard solution, PG-screening acetylcholinesterase (AchE), a tracer […], and PG-screening EIA antiserum were provided.
(1) Production of PGF2α by COX-1
A reaction solution containing the compound of the Examples (50 μM) and COX-1 was allowed to stand at 37° C. for 10 minutes, then 10 μl of arachidonic acid was added thereto, and the resultant mixture was allowed to stand at 37° C. for 2 minutes. After the reaction, 50 μl of 1 N hydrochloric acid was added to the reaction mixture to thereby stop the reaction, and 100 μl of a SnCl2 solution was added thereto. The resultant mixture was allowed to stand at room temperature for 5 minutes.
(2) Quantification of PGF2α by ELISA
50 μl of antiserum (rabbit anti-PGF2α antibody) was added to each of the wells of a 96-well plate coated with mouse anti-rabbit IgG. Then, 50 μl of a solution prepared by diluting the aforementioned reaction solution for the production of PGF2α to 2000-folds, and 50 μl of an AchE tracer were added sequentially to the wells, and the plate was allowed to stand at room temperature for 18 hours. Each well was washed 5 times with the washing buffer to remove excessive AchE tracer, and then 200 μl of Ellman reagent was added to each well. The plate was kept in a dark room for 60 minutes, and then, absorbance at 405 nm was measured.
(3) Calculation of Inhibitory Activity of the Compound of the Examples
A standard curve was produced using a PG-screening EIA standard solution, and the amount of PGF2α production was determined from the absorbance obtained in the above. The rate of COX-1 inhibition in the presence of 50 μM of the compound of the Examples was calculated.

`COc1ccc(-n2nc(C(=O)NC(C)(C)C)nc2-c2ccc(N)cn2)cn1` [Example 14, 5-(5-Amino-2-pyridyl)-1-(6-methoxy-3-pyridyl)-1H-1,2,4-triazole-3-carboxylic acid N-tert-butylamide] was tested. Which pIC50 [1] did it give?
Its pIC50 is 6.89.

What does the source list for `COc1ccc(-n2nc(C(=O)N3CCN(C)CC3)nc2-c2ccc(C)cn2)cn1` [Example 29, 1-[1-(6-Methoxy-3-pyridyl)-5-(5-methyl-2-pyridyl)-1H-1,2,4-triazole-3-carbonyl]-4-methylpiperazine]?
pIC50 [1]: 6.66; inhibition at 50 µM [2]: -23.1%

`COc1ccc(-n2nc(C(=O)N3CCC(F)(F)CC3)nc2-c2ccc(CO)cn2)cn1` [Example 41, 1-[5-(5-Hydroxymethyl-2-pyridyl)-1-(6-methoxy-3-pyridyl)-1H-1,2,4-triazole-3-carbonyl]-4,4-difluoropiperidine] was tested. Which pIC50 [1] did it give?
The pIC50 was 6.66.

And the inhibition at 50 µM [2]?
The inhibition at 50 µM was 4.6%.

`COc1ccc(-n2nc(C(=O)NC(C)(C)C)nc2-c2ccc(Cl)cn2)cn1` [Example 11, N-tert-Butyl-5-(5-chloro-2-pyridyl)-1-(6-methoxy-3-pyridyl)-1H-1,2,4-triazole-3-carboxamide] was tested. Which pIC50 [1] did it give?
The pIC50 was 7.06.

With `COc1ccc(-n2nc(C(=O)NC(C)(C)C)nc2-c2ccccn2)cn1` [Example 1, N-tert-Butyl-1-(6-methoxy-3-pyridyl)-5-(2-pyridyl)-1H-1,2,4-triazole-3-carboxamide] as the compound, how does the pIC50 [1] read?
Its pIC50 is 7.40.

What about the inhibition at 50 µM [2] of the same compound?
Its inhibition at 50 µM is 7.5%.

Which results are given for `Cc1ccc(-c2nc(C(=O)NC(C)(C)C)nn2-c2ccc(C)nc2)nc1` [Example 35, N-tert-Butyl-1-(6-methyl-3-pyridyl)-5-(5-methyl-2-pyridyl)-1H-1,2,4-triazole-3-carboxamide]?
pIC50 [1]: 6.92; inhibition at 50 µM [2]: -17.2%

`COc1ccc(-n2nc(C(=O)NC(C)(C)C)nc2-c2ccc(C#N)cn2)cn1` [Example 3, N-tert-Butyl-5-(5-cyano-2-pyridyl)-1-(6-methoxy-3-pyridyl)-1H-1,2,4-triazole-3-carboxamide] was tested. Which pIC50 [1] did it give?
The pIC50 was 6.80.

What about the inhibition at 50 µM [2] of the same compound?
The inhibition at 50 µM was 19.5%.

How did the pIC50 [1] turn out when `COc1ccc(-n2nc(C(=O)N3CCOCC3)nc2-c2ccc(C)cn2)cn1` [Example 38, 4-[1-(6-Methoxy-3-pyridyl)-5-(5-methyl-2-pyridyl)-1H-1,2,4-triazole-3-carbonyl]morpholine] was run?
The pIC50 was 6.60.

What about the inhibition at 50 µM [2] of the same compound?
The inhibition at 50 µM was 0.9%.

`COc1ccc(-n2nc(C(=O)NC3(C)CC3)nc2-c2ccc(C)cn2)cn1` [Example 44, N-(1-Methylcyclopropyl)-1-(6-methoxy-3-pyridyl)-5-(5-methyl-2-pyridyl)-1H-1,2,4-triazole-3-carboxamide] was tested. Which pIC50 [1] did it give?
Its pIC50 is 6.66.

With `COc1ccc(-n2nc(C(=O)NCC(C)(C)C)nc2-c2ccc(C)cn2)cn1` [Example 18, 1-(6-Methoxy-3-pyridyl)-5-(5-methyl-2-pyridyl)-1H-1,2,4-triazole-3-carboxylic acid N-neopentylamide] as the compound, how does the pIC50 [1] read?
The pIC50 was 7.89.

`COc1ccc(-n2nc(C(=O)NC(C)(C)C)nc2-c2cnc(C)cn2)cn1` [Example 6, N-tert-Butyl-1-(6-methoxy-3-pyridyl)-5-(5-methyl-2-pyrazinyl)-1H-1,2,4-triazole-3-carboxamide] was tested. Which pIC50 [1] did it give?
Its pIC50 is 6.77.

What about the inhibition at 50 µM [2] of the same compound?
The inhibition at 50 µM was -15.8%.

Which results are given for `COc1ccc(-n2nc(C(=O)N3CCC[C@H]3CF)nc2-c2ccc(C)cn2)cn1` [Example 37, (2S)-1-[1-(6-Methoxy-3-pyridyl)-5-(5-methyl-2-pyridyl)-1H-1,2,4-triazole-3-carbonyl]-2-fluoromethylpyrrolidine]?
pIC50 [1]: 7.80; inhibition at 50 µM [2]: 6.6%

How did the pIC50 [1] turn out when `COc1ccc(-n2nc(C(=O)NC(C)C)nc2-c2ccccn2)cn1` [Example 22, N-isoPropyl-1-(6-methoxy-3-pyridyl)-5-(2-pyridyl)-1H-1,2,4-triazole-3-carboxamide] was run?
The pIC50 was 6.28.
